Several values for one entry are separate records, joined by “and”; a condition that tells them apart may be missing. Identical values can stand only once.

The test system of series [1] is rat uterine decidualization. Kind of series: Rat decidualization assay. Type of series: in vivo. As to conditions: ovariectomized rats, p.o., with progesterone 5.6 mg/kg. How it is done: 2. Rat Decidualization Assay
b. Animals (RACUC protocol #5002)
The animals are treated once daily for seven days.
Uteri are removed and trimmed of fat.
S f. Analysis of Results:
Body weight: Mean total animal body weight (default-kg)
Decidual response: [(D-C)/C]×100%

In the next series the test system is T47D cells. The series can be described thus: T47D cell proliferation assay (BrdU incorporation). As to conditions: Homo sapiens, agonist mode, reference progestins, read-out: Estimated EC50, BrdU incorporation, individual studies. The format is cell-based. The procedure: 1. T47D cell Proliferation Assay
The objective of this assay is the determination of progestational and antiprogestational potency by using a cell proliferation assay in T47D cells. A compound's effect on DNA synthesis in T47D cells is measured.
DMEM:F12 (1:1) (GIBCO, BRL) supplemented with 10% (v/v) fetal bovine serum (not heat-inactivated), 100 U/ml penicillin, […], and 2 mM GlutaMax (GIBCO, BRL). b. Treatment medium: Minimum Essential
Medium (MEM) (#51200-038GIBCO, BRL) phenol red-free supplemented with 0.5% charcoal stripped fetal bovine serum, 100 U/ml penicillin, […] streptomycin, and 2 mM GlutaMax (GIBCO, BRL).
Stock T47 D cells are maintained in growth medium. For BrdU incorporation assay, cells are plated in 96-well plates (Falcon, Becton Dickinson Labware) at 10,000 cells/well in growth medium. […]
At the end of BrdU labeling, the medium is removed and BrdU incorporation is measured using a cell proliferation ELISA kit (#RPN 250, Amersham Life Science) according to manufacturer's instructions. […] Then 25 μl of 1 M sulfuric acid is added to each well to stop color reaction and optical density is read in a plate reader at 450 nm within 5 min.
Square root-transformed data are used for analysis of variance and nonlinear dose response curve fitting for both agonist and antagonist modes. […] EC50 or IC50 values are calculated from the retransformed values. […]

Take `CC#C[C@]1(O)CC[C@H]2[C@@H]3CCC4=CC(=O)CCC4=C3[C@@H](c3ccc(N(C)C)cc3)C[C@@]21C` [RU486]: the “Estimated IC50, decrease in EC50 progesterone induced decidual response” value in series [1] is 0.21 mg/kg and 0.14 mg/kg. As usually defined, the melting point is the temperature of the solid-liquid transition. Compound `O=c1[nH]c2ccc(-c3cccc(Cl)c3)cc2n1Cc1ccccc1` [Compound 1, 1-Benzyl-6-(3-chloro-phenyl)-1,3-dihydro-benzoimidazol-2-one] gave a melting point of 168 to 169 °C. The same measure, in the same setting: as for `CCC1Sc2cc(-c3cccc([N+](=O)[O-])c3)ccc2NC1=O` (stereo not drawn) [Compound B2, 2-Ethyl-7-(3-nitro-phenyl)-4H-benzo[1,4]thiazin-3-one], the figure is 180 °C. The same measure, in the same setting: to `CC(C)N1CC(=O)Nc2ccc(-c3cccc(Cl)c3)cc21` [Compound C4, 6-(3-Chloro-phenyl)-4-isopropyl-3,4-dihydro-1H-quinoxalin-2-one] belongs 146 to 150 °C.

Regarding `CC(=O)O[C@]1(C(C)=O)CC[C@H]2[C@@H]3C[C@H](C)C4=CC(=O)CC[C@]4(C)[C@H]3CC[C@@]21C` [MPA, medroxyprogesterone acetate], the EC50 in the series with T47D cells is 0.019 nM. For `Cn1c(=O)[nH]c2ccc(-c3cccc(Cl)c3)cc21` [Compound 3, 6-(3-chloro-phenyl)-1-methyl-1,3-dihydro-benzoimidazol-2-one], the melting point is 219 to 220 °C. The same measure, in the same setting: as for `O=c1[nH]c2ccc(-c3cccc([N+](=O)[O-])c3)cc2n1Cc1ccccc1` [Compound 2, 1-Benzyl-6-(3-nitro-phenyl)-1,3-dihydro-benzoimidazol-2-one], the figure is 202 to 203 °C. Still for that read-out and setting: as for `O=C1CSc2cc(-c3cccc([N+](=O)[O-])c3)ccc2N1` [Compound B1, 7-(3-Nitro-phenyl)-4H-benzo[1,4]thiazin-3-one], the figure is 290 to 292 °C; as for `S=c1[nH]c2ccc(-c3cccc(Cl)c3)cc2n1Cc1ccccc1` [Example 24, 1-Benzyl-6-(3-chlorophenyl)-1,3-dihydro-2H-benzimidazole-2-thione], 211 to 212 °C.

Compound `CC(C)N1CC(=O)Nc2ccc(-c3cc(F)cc(C#N)c3)cc21` [Example 20, 6-(3-Cyano-5-fluorophenyl)-4-isopropyl-3,4-dihydro-1H-quinoxalin-2-one] showed a melting point of 238 to 240 °C.

For the compound `O=c1[nH]c2ccc(-c3cccc([N+](=O)[O-])c3)cc2o1` [Example 11, 6-(3-Nitro-phenyl)-3H-benzooxazol-2-one], the melting point was 280 to 281 °C. Take `O=c1[nH]c2ccc(-c3cccc(Cl)c3)cc2s1` [Example 13, 6-(3-Chloro-phenyl)-3H-benzothiazol-2-one]: the melting point lay in the range of 195 to 196 °C. The same measure, in the same setting: as for `CC1Nc2cc(-c3ccc(Cl)cc3)ccc2NC1=O` (stereo not drawn) [Example 27, 6-(4-Chloro-phenyl)-3-methyl-3,4-dihydro-1H-quinoxalin-2-one], the figure is 228 to 230 °C; as for `O=c1[nH]c2ccc(-c3cccc([N+](=O)[O-])c3)cc2s1` [Example 12, 6-(3-Nitro-phenyl)-3H-benzothiazol-2-one], 276 to 277 °C; as for `CC(C)N1CC(=O)Nc2ccc(-c3ccc(F)c(Cl)c3)cc21` [Compound C5, 6-(3-Chloro-4-fluoro-phenyl)-4-isopropyl-3,4-dihydro-1H-quinoxalin-2-one], 208 to 213 °C. Turning to `O=c1[nH]c2ccc(-c3cccc([N+](=O)[O-])c3)cc2[nH]1` [Example 9, 5-(3-Nitro-phenyl)-1,3-dihydro-benzoimidazol-2-one], the melting point fell in the range of 324 to 325 °C. Same read-out and setting: as for `CN1CC(=O)Nc2ccc(-c3cccc([N+](=O)[O-])c3)cc21` [Example 26, 6-(3-Nitro-phenyl)-4-methyl-3,4-dihydro-1H-quinoxalin-2-one], the figure is 237 to 243 °C; as for `O=C1CN(Cc2ccccc2)c2cc(-c3cccc(Cl)c3)ccc2N1` [Example 28, 4-Benzyl-6-(3-chlorophenyl)-3,4-dihydroquinoxalin-2 (1H)-one], 182 to 185 °C; as for `Cn1c(=O)[nH]c2ccc(-c3cccc([N+](=O)[O-])c3)cc21` [Compound 4, 1-Methyl-6-(3-nitro-phenyl)-1,3-dihydro-benzoimidazol-2-one], 264 to 265 °C. The compound `O=[N+]([O-])c1cccc(-c2ccc3[nH]c(=S)n(Cc4ccccc4)c3c2)c1` [Example 25, 1-Benzyl-6-(3-nitrophenyl)-1,3-dihydro-2H-benzimidazole-2-thione] showed a melting point of 244 to 245 °C. Same read-out and setting: as for `CC(C)OC(=O)N1CC(=S)Nc2ccc(-c3cccc(Cl)c3)cc21` [Example 30, Isopropyl 7-(3-chlorophenyl)-3-thioxo-3,4-dihydroquinoxaline-1(2H)-carboxylate], the figure is 208 to 212 °C.
